# Data taken from US20220062240A1, “METHODS OF TREATING CANCER USING A CLK INHIBITOR” (BioSplice Therapeutics, Inc., priority 2018, published 2022).
# Like-named read-outs stand apart in the source and are kept apart here.
# What was measured:
# [1] = system: liver cancer (3 cell lines); assay: CellTiter-Glo Viability Assay, liver cancer; assay type: cell-based; conditions: Homo sapiens, inhibition of cancer cell proliferation
# [2] = system: prostate cancer (5 cell lines); assay: CellTiter-Glo Viability Assay, prostate cancer; assay type: cell-based; conditions: Homo sapiens
# [3] = system: ovarian cancer (4 cell lines); assay: CellTiter-Glo Viability Assay, ovarian cancer; assay type: cell-based; conditions: Homo sapiens, inhibition of cancer cell proliferation
# T47D = assay: CellTiter-Glo Viability Assay, breast cancer; assay type: cell-based; conditions: Homo sapiens, 96 h, breast cancer, four days, read-out: EC50
# DU4475 = assay: CellTiter-Glo Viability Assay, breast cancer; assay type: cell-based; conditions: Homo sapiens, DU-4475, 96 h; DU4475, breast cancer, four days; read-out: EC50
# ZR-75-1 = assay: CellTiter-Glo Viability Assay, breast cancer; assay type: cell-based; conditions: Homo sapiens, 96 h; ZR-75-1, breast cancer, four days; read-out: EC50
# BT-549 = assay: CellTiter-Glo Viability Assay, breast cancer; assay type: cell-based; conditions: Homo sapiens, 96 h; BT-549, breast cancer, four days; read-out: EC50
# HCC1599 = assay: CellTiter-Glo Viability Assay, breast cancer; assay type: cell-based; conditions: Homo sapiens, 96 h; HCC1599, breast cancer, four days; read-out: EC50
# MDA-MB-231-Luc = assay: CellTiter-Glo Viability Assay, breast cancer; assay type: cell-based; conditions: Homo sapiens, 96 h; MDA-MB-231-Luc, breast cancer, four days; read-out: EC50
# CAMA1 = assay: CellTiter-Glo Viability Assay, breast cancer; assay type: cell-based; conditions: Homo sapiens, CAMA-1, 96 h; CAMA1, breast cancer, four days; read-out: EC50
# MCF7 = assay: CellTiter-Glo Viability Assay, breast cancer; assay type: cell-based; conditions: Homo sapiens, 96 h; MCF7, breast cancer, four days; read-out: EC50
# [4] = system: lung cancer (4 cell lines); assay: CellTiter-Glo Viability Assay, lung cancer; assay type: cell-based; conditions: Homo sapiens, inhibition of cancer cell proliferation
# [5] = system: colorectal cancer (6 cell lines); assay: CellTiter-Glo Viability Assay, colorectal cancer; assay type: cell-based; conditions: Homo sapiens, inhibition of cancer cell proliferation
# [6] = system: pancreatic cancer (8 cell lines); assay: CellTiter-Glo Viability Assay, pancreatic cancer; assay type: cell-based; conditions: Homo sapiens, inhibition of cancer cell proliferation
# all 50 cell lines = assay: CellTiter-Glo Viability Assay, average across all cell lines; assay type: cell-based; conditions: Homo sapiens; across all 50 cell lines; read-out: average EC50 for inhibition of cancer cell proliferation
# Procedure, shortened: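 Luminescent ATP read-out (CellTiter-Glo) after a 4-day compound exposure at 37° C served as the viability measure. Cells were seeded at 300-3,000/well, compound wells run in duplicate against DMSO controls, and EC50 values came from fitted dose-response curves.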
# [7] = system: haematopoietic & lymphoid tumors (13 cell lines); assay: CellTiter-Glo Viability Assay, haematopoietic & lymphoid tumors; assay type: cell-based; conditions: Homo sapiens, inhibition of cancer cell proliferation
# CLK2 = target: T1, CLK2 (Homo sapiens, UniProt P49760); assay: CLK2 kinase activity assay (Z-lyte, Ser/Thr 6 peptide); assay type: biochemical; conditions: recombinant CLK2 kinase, ATP 60 μM; read-out: EC50
# T1 construct: purchased Thermo Fisher (Life Technologies), Z'-LYTE Kinase Assay Kits
# Method: All reactions were performed in duplicate.
# [8] = SNU-398, SNU398 cell line, read-out: Liver cancer, EC50 SNU398
# [9] = HEPG2 cell line, read-out: Liver cancer, EC50 HEPG2
# [10] = PLC/PRF/5 cell line, read-out: Liver cancer, EC50 PLC/PRF/5
# [11] = DU-145, read-out: Prostate cancer EC50 Du-145
# [12] = PC-3, PC3 cell line, inhibition of cancer cell proliferation, read-out: Prostate cancer EC50 PC3
# [13] = 22Rv1 cell line, inhibition of cancer cell proliferation, read-out: Prostate cancer EC50 22Rv1
# [14] = LNCap clone FGC cell line, inhibition of cancer cell proliferation, read-out: Prostate cancer EC50 LNCap clone FGC
# [15] = VCaP (Sigma) cell line, inhibition of cancer cell proliferation, read-out: Prostate cancer EC50 VCaP (Sigma)
# [16] = PA-1, PA1 cell line, read-out: Ovarian cancer, EC50 (μM) PA1
# [17] = TOV112D, TOV-112D cell line, read-out: Ovarian cancer, EC50 (μM) TOV-112D
# [18] = OV-90 cell line, read-out: Ovarian cancer, EC50 (μM) OV-90
# [19] = OVCAR-3 cell line, read-out: Ovarian cancer, EC50 (μM) OVCAR-3
# [20] = A-427, A427 cell line, read-out: Lung cancer, EC50 (μM) A427
# [21] = HCC78, HCC-78 cell line, read-out: Lung cancer, EC50 (μM) HCC-78
# [22] = NCI-H460 cell line, read-out: Lung cancer, EC50 (μM) NCI-H460
# [23] = NCI-H522 cell line, read-out: Lung cancer, EC50 (μM) NCI-H522
# [24] = HCT-116, HCT116 cell line, read-out: Colorectal cancer, EC50 (μM) HCT116
# [25] = HT-29, HT29 cell line, read-out: Colorectal cancer, EC50 (μM) HT29
# [26] = SW-620, SW620 cell line, read-out: Colorectal cancer, EC50 (μM) SW620
# [27] = DLD-1 cell line, read-out: Colorectal cancer, EC50 (μM) DLD-1
# [28] = SW48 cell line, read-out: Colorectal cancer, EC50 (μM) SW48
# [29] = SW480 cell line, read-out: Colorectal cancer, EC50 (μM) SW480
# [30] = DND41, DND-41 cell line, read-out: Haematopoietic & Lymphoid tumors, EC50 (μM) DND-41
# [31] = MV4-11, MV-4-11 cell line, read-out: Haematopoietic & Lymphoid tumors, EC50 (μM) MV-4-11
# [32] = Rec1, REC-1 cell line, read-out: Haematopoietic & Lymphoid tumors, EC50 (μM) REC-1
# [33] = SU-DHL-4, SUDHL4 cell line, read-out: Haematopoietic & Lymphoid tumors, EC50 (μM) SUDHL4
# [34] = HL-60 cell line, read-out: Haematopoietic & Lymphoid tumors, EC50 (μM) HL-60
# [35] = JM1 cell line, read-out: Haematopoietic & Lymphoid tumors, EC50 (μM) JM1
# [36] = JURKAT, Clone E6-1 cell line, read-out: Haematopoietic & Lymphoid tumors, EC50 (μM) JURKAT, Clone E6-1
# [37] = JeKo-1 cell line, read-out: Haematopoietic & Lymphoid tumors, EC50 (μM) JeKo-1
# [38] = KASUMI-1 cell line, read-out: Haematopoietic & Lymphoid tumors, EC50 (μM) KASUMI-1
# [39] = Loucy cell line, read-out: Haematopoietic & Lymphoid tumors, EC50 (μM) Loucy
# [40] = MOLT-4 cell line, read-out: Haematopoietic & Lymphoid tumors, EC50 (μM) MOLT-4
# [41] = TF-1 cell line, read-out: Haematopoietic & Lymphoid tumors, EC50 (μM) TF-1
# [42] = TOLEDO cell line, read-out: Haematopoietic & Lymphoid tumors, EC50 (μM) TOLEDO
# T1 sequence (P49760 whole entry): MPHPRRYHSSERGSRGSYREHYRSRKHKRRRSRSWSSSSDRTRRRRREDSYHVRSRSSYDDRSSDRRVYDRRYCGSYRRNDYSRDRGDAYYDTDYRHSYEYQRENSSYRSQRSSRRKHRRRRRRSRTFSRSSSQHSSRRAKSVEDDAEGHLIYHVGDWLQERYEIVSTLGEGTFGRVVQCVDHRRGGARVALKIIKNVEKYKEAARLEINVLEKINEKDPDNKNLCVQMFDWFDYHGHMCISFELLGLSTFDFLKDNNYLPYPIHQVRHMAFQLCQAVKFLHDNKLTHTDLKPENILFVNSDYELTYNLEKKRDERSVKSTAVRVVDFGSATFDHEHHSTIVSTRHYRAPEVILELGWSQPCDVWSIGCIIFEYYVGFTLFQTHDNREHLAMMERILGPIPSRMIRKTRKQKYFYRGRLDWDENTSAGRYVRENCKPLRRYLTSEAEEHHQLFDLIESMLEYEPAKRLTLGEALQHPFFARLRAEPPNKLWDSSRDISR
structure (smiles),measurement,setting,value
CN1CCCn2cc(nn2)-c2nccc3[nH]c(nc23)-c2n[nH]c3ccc(cc23)-c2cncc(c2)C1 [Compound 57],EC50,[1]; [8],3380 nM
same,EC50,[1]; [9],> 10000 nM
same,EC50,[1]; [10],> 10000 nM
same,EC50,[2]; [11],> 10000 nM
same,EC50,[2]; [12],8340 nM
same,EC50,[2]; [13],6980 nM
same,EC50,[2]; [14],> 10000 nM
same,EC50,[2]; [15],> 10000 nM
same,EC50,[3]; [16],> 10 µM
same,EC50,[3]; [17],> 10 µM
same,EC50,[3]; [18],> 10 µM
same,EC50,[3]; [19],3.89 µM
same,EC50,T47D,> 10000 nM
same,EC50,DU4475,1660 nM
same,EC50,ZR-75-1,> 10000 nM
same,EC50,BT-549,5810 nM
same,EC50,HCC1599,2200 nM
same,EC50,MDA-MB-231-Luc,> 10000 nM
same,EC50,CAMA1,> 10000 nM
same,EC50,MCF7,> 10000 nM
same,EC50,[4]; [20],7.79 µM
same,EC50,[4]; [21],> 10 µM
same,EC50,[4]; [22],> 10 µM
same,EC50,[4]; [23],7.58 µM
same,EC50,[5]; [24],> 10 µM
same,EC50,[5]; [25],> 10 µM
same,EC50,[5]; [26],7.7 µM
same,EC50,[5]; [27],> 10 µM
same,EC50,[5]; [28],2.03 µM
same,EC50,[5]; [29],> 10 µM
same,EC50,"[6]; BXPC-3, BxPC3 cell line, read-out: Pancreatic cancer, EC50 BxPC3",7240 nM
same,EC50,"[6]; CAPAN-1, Capan1 cell line, read-out: Pancreatic cancer, EC50 Capan1",> 10000 nM
same,EC50,"[6]; Capan-2, Capan2 cell line, read-out: Pancreatic cancer, EC50 Capan2",> 10000 nM
same,EC50,"[6]; MIA PaCa-2 cell line, read-out: Pancreatic cancer, EC50 MIA PaCa-2",6720 nM
same,EC50,"[6]; PANC 05.04 cell line, read-out: Pancreatic cancer, EC50 PANC 05.04",> 10000 nM
same,EC50,"[6]; PANC-1 cell line, read-out: Pancreatic cancer, EC50 PANC-1",> 10000 nM
same,EC50,"[6]; UPAFII cell line, read-out: Pancreatic cancer, EC50 UPAFII",> 10000 nM
same,EC50,all 50 cell lines,7300 nM
same,EC50,[7]; [30],2.38 µM
same,EC50,[7]; [31],0.188 µM
same,EC50,[7]; [32],6.85 µM
same,EC50,[7]; [33],0.953 µM
same,EC50,[7]; [34],3.13 µM
same,EC50,[7]; [35],1.68 µM
same,EC50,[7]; [36],> 10 µM
same,EC50,[7]; [37],0.917 µM
same,EC50,[7]; [38],9.46 µM
same,EC50,[7]; [39],1.71 µM
same,EC50,[7]; [40],> 10 µM
same,EC50,[7]; [41],4.32 µM
same,EC50,[7]; [42],1.85 µM
same,EC50,CLK2,2.8 nM
Cn1cc(-c2ccc3cnc(NC(=O)c4ccc5c(c4)CNCC5)cc3c2)cn1 [Compound 74],EC50,[1]; [8],121 nM
same,EC50,[1]; [9],716 nM
same,EC50,[1]; [10],1100 nM
same,EC50,[2]; [11],549 nM
same,EC50,[2]; [12],438 nM
same,EC50,[2]; [13],347 nM
same,EC50,[2]; [14],587 nM
same,EC50,[2]; [15],823 nM
same,EC50,[3]; [16],0.495 µM
same,EC50,[3]; [17],0.229 µM
same,EC50,[3]; [18],1.49 µM
same,EC50,[3]; [19],0.195 µM
same,EC50,T47D,997 nM
same,EC50,DU4475,302 nM
same,EC50,ZR-75-1,971 nM
same,EC50,BT-549,346 nM
same,EC50,HCC1599,168 nM
same,EC50,MDA-MB-231-Luc,750 nM
same,EC50,CAMA1,694 nM
same,EC50,MCF7,1900 nM
same,EC50,[4]; [20],0.355 µM
same,EC50,[4]; [21],0.835 µM
same,EC50,[4]; [22],0.574 µM
same,EC50,[4]; [23],0.188 µM
same,EC50,[5]; [24],0.239 µM
same,EC50,[5]; [25],0.52 µM
same,EC50,[5]; [26],0.163 µM
same,EC50,[5]; [27],0.215 µM
same,EC50,[5]; [28],0.151 µM
same,EC50,[5]; [29],0.313 µM
same,EC50,all 50 cell lines,504 nM
same,EC50,[7]; [30],0.491 µM
same,EC50,[7]; [31],0.076 µM
same,EC50,[7]; [32],0.134 µM
same,EC50,[7]; [33],0.376 µM
same,EC50,[7]; [34],0.76 µM
same,EC50,[7]; [35],0.135 µM
same,EC50,[7]; [36],0.464 µM
same,EC50,[7]; [37],0.157 µM
same,EC50,[7]; [38],0.203 µM
same,EC50,[7]; [39],0.241 µM
same,EC50,[7]; [40],0.465 µM
same,EC50,[7]; [41],0.673 µM
same,EC50,[7]; [42],0.134 µM
same,EC50,CLK2,1.9 nM
